Experimental data reported in patent US20210246157A1, “CAMPTOTHECIN DERIVATIVES AND PREPARATION METHODS AND APPLICATIONS THEREOF” (priority 2018, published 2021).

Assays:
tumor = assay: Multi-dose in vivo antitumor activity, tumor volume (Example 20); parameters: species or system mice; details: for Mouse Tumor Volume: caudal vein once every 2 days; for tumor inhibition effects of the high-dose groups compared with CPT-11 (in words): same dosage (10 mg/kg), p<0.001; for dose dependence of tumor inhibition (in words): low, medium and high dose
Description: The drugs are administered through the caudal veins of mice once every 2 days for a total of 7 times.
Tumor volume is measured every three days from day 0. The maximum diameter (a) of the tumor is measured first, and then the longest radial line (b) perpendicular to the maximum diameter is measured, using mm as unit. Tumor volume is calculated according to the following formula: […]

ECA-109 = assay: Cytotoxicity test (MTT, 72 h); details: Homo sapiens, ECa-109, 72 h, read-out: 50% Inhibiting Concentration value (IC50)
Description: In order to investigate the antitumor activities of the compounds, a variety of tumor cell lines for test are selected. Cells at logarithmic growth period are inoculated in a 96-well plate overnight, then drugs with a certain gradient concentrations are added, and incubation is carried out in a cell culture chamber (5% CO2, 37° C.) for 72 h.

CCc1c2c(nc3ccc(OC(=O)OCCOCCOCCOCc4cn(CCO[C@H]5O[C@@H](CO)[C@H](O)[C@@H](O)[C@@H]5O)nn4)cc13)-c1cc3c(c(=O)n1C2)COC(=O)[C@]3(O)CC [Compound 58]
Mouse Tumor Volume (tumor; day 0, high-dose group (H) 13.73 mg/kg): 120.63 mm^3 | Mouse Tumor Volume (tumor; day 0, low-dose group (L) 3.433 mg/kg): 110.67 mm^3 | Mouse Tumor Volume (tumor; day 0, medium-dose group (M) 6.865 mg/kg): 113.01 mm^3 | Mouse Tumor Volume (tumor; day 3, high-dose group (H) 13.73 mg/kg): 151.62 mm^3 | Mouse Tumor Volume (tumor; day 3, low-dose group (L) 3.433 mg/kg): 164.30 mm^3 | Mouse Tumor Volume (tumor; day 3, medium-dose group (M) 6.865 mg/kg): 106.18 mm^3 | Mouse Tumor Volume (tumor; day 6, high-dose group (H) 13.73 mg/kg): 206.78 mm^3 | Mouse Tumor Volume (tumor; day 6, low-dose group (L) 3.433 mg/kg): 235.34 mm^3 | Mouse Tumor Volume (tumor; day 6, medium-dose group (M) 6.865 mg/kg): 122.56 mm^3 | Mouse Tumor Volume (tumor; day 9, high-dose group (H) 13.73 mg/kg): 254.08 mm^3 | Mouse Tumor Volume (tumor; day 9, low-dose group (L) 3.433 mg/kg): 252.37 mm^3 | Mouse Tumor Volume (tumor; day 9, medium-dose group (M) 6.865 mg/kg): 151.19 mm^3 | Mouse Tumor Volume (tumor; day 12, high-dose group (H) 13.73 mg/kg): 317.44 mm^3 | Mouse Tumor Volume (tumor; day 12, low-dose group (L) 3.433 mg/kg): 316.07 mm^3 | Mouse Tumor Volume (tumor; day 12, medium-dose group (M) 6.865 mg/kg): 141.38 mm^3 | Mouse Tumor Volume (tumor; day 15, high-dose group (H) 13.73 mg/kg): 430.78 mm^3 | Mouse Tumor Volume (tumor; day 15, low-dose group (L) 3.433 mg/kg): 375.47 mm^3 | Mouse Tumor Volume (tumor; day 15, medium-dose group (M) 6.865 mg/kg): 141.13 mm^3 | Mouse Tumor Volume (tumor; day 18, high-dose group (H) 13.73 mg/kg): 519.79 mm^3 | Mouse Tumor Volume (tumor; day 18, low-dose group (L) 3.433 mg/kg): 401.94 mm^3 | Mouse Tumor Volume (tumor; day 18, medium-dose group (M) 6.865 mg/kg): 134.18 mm^3 | Mouse Tumor Volume (tumor; day 21, high-dose group (H) 13.73 mg/kg): 555.67 mm^3 | Mouse Tumor Volume (tumor; day 21, low-dose group (L) 3.433 mg/kg): 433.61 mm^3 | Mouse Tumor Volume (tumor; day 21, medium-dose group (M) 6.865 mg/kg): 142.06 mm^3 | increase of tumor volume compared with other groups (in words) (tumor; high-dose group, after last administration): slowest increase | tumor inhibition effects of the high-dose groups compared with CPT-11 (in words) (tumor): better than that of positive control group CPT-11 | dose dependence of tumor inhibition (in words) (tumor): dose-dependent | IC50 (ECA-109): 4.38 µM

CCc1c2c(nc3ccc(OC(=O)NCCOCc4cn(CCO[C@H]5O[C@@H](CO)[C@H](O)[C@@H](O)[C@@H]5O)nn4)cc13)-c1cc3c(c(=O)n1C2)COC(=O)[C@]3(O)CC [Compound 67]
Mouse Tumor Volume (tumor; day 0, high-dose group (H) 12.30 mg/kg): 121.62 mm^3 | Mouse Tumor Volume (tumor; day 0, low-dose group (L) 3.075 mg/kg): 125.58 mm^3 | Mouse Tumor Volume (tumor; day 0, medium-dose group (M) 6.15 mg/kg): 161.01 mm^3 | Mouse Tumor Volume (tumor; day 3, high-dose group (H) 12.30 mg/kg): 91.15 mm^3 | Mouse Tumor Volume (tumor; day 3, low-dose group (L) 3.075 mg/kg): 194.43 mm^3 | Mouse Tumor Volume (tumor; day 3, medium-dose group (M) 6.15 mg/kg): 168.50 mm^3 | Mouse Tumor Volume (tumor; day 6, high-dose group (H) 12.30 mg/kg): 96.67 mm^3 | Mouse Tumor Volume (tumor; day 6, low-dose group (L) 3.075 mg/kg): 197.42 mm^3 | Mouse Tumor Volume (tumor; day 6, medium-dose group (M) 6.15 mg/kg): 208.68 mm^3 | Mouse Tumor Volume (tumor; day 9, high-dose group (H) 12.30 mg/kg): 103.36 mm^3 | Mouse Tumor Volume (tumor; day 9, low-dose group (L) 3.075 mg/kg): 278.06 mm^3 | Mouse Tumor Volume (tumor; day 9, medium-dose group (M) 6.15 mg/kg): 220.90 mm^3 | Mouse Tumor Volume (tumor; day 12, high-dose group (H) 12.30 mg/kg): 110.74 mm^3 | Mouse Tumor Volume (tumor; day 12, low-dose group (L) 3.075 mg/kg): 420.38 mm^3 | Mouse Tumor Volume (tumor; day 12, medium-dose group (M) 6.15 mg/kg): 295.90 mm^3 | Mouse Tumor Volume (tumor; day 15, high-dose group (H) 12.30 mg/kg): 133.88 mm^3 | Mouse Tumor Volume (tumor; day 15, low-dose group (L) 3.075 mg/kg): 498.90 mm^3 | Mouse Tumor Volume (tumor; day 15, medium-dose group (M) 6.15 mg/kg): 378.20 mm^3 | Mouse Tumor Volume (tumor; day 18, high-dose group (H) 12.30 mg/kg): 116.64 mm^3 | Mouse Tumor Volume (tumor; day 18, low-dose group (L) 3.075 mg/kg): 587.60 mm^3 | Mouse Tumor Volume (tumor; day 18, medium-dose group (M) 6.15 mg/kg): 404.02 mm^3 | Mouse Tumor Volume (tumor; day 21, high-dose group (H) 12.30 mg/kg): 103.48 mm^3 | Mouse Tumor Volume (tumor; day 21, low-dose group (L) 3.075 mg/kg): 624.45 mm^3 | Mouse Tumor Volume (tumor; day 21, medium-dose group (M) 6.15 mg/kg): 394.44 mm^3 | tumor inhibition effects of the high-dose groups compared with CPT-11 (in words) (tumor): better than that of positive control group CPT-11 | dose dependence of tumor inhibition (in words) (tumor): dose-dependent | IC50 (ECA-109): 4.32 µM
